{"source": "patent US20260035340A1", "about": "“INHIBITORS OF AKR1C3 AND METHODS OF USE” (BOARD OF REGENTS OF THE UNIVERSITY OF NEBRASKA, priority 2022, published 2026)", "key": {"[1]": {"assay": "In vitro stability in simulated gastric fluid (SGF)", "type": "in vitro ADME", "conditions": "SGF for 1 h", "method": "(§1) In vitro stability studies: Gastrointestinal (GI) fluid stability studies were performed in simulated gastric fluid (SGF) and simulated intestinal fluid (SIF). All the required media were prepared according to the USP guidelines. Mouse plasma stability were performed for neat-spiked and plasma spiked samples (pre-extraction) at 37° C. for 4 h. In addition to the analyte stability in matrix, at 48 h stability of the extracted samples was performed at 4° C. in the autosampler."}, "[2]": {"assay": "In vitro stability in simulated intestinal fluid (SIF)", "type": "in vitro ADME", "conditions": "SIF for 2 h", "method": "as §1"}, "[3]": {"assay": "In vitro stability in mouse plasma", "type": "in vitro ADME", "description": "(§2) Liquid chromatography and mass spectrometry (LCMS/MS): The ultra-performance liquid chromatography mass spectrometry system (UPLC-MS/MS) consisted of a Shimadzu 8060NX mass spectrometer and Nexera Series UPLC (Shimadzu Scientific Instruments, Columbia, MD). Analyte separation was achieved utilizing an Acquity UPLC® BEH column (C18, 2.1×100 mm, 1.7 μm) equipped with an Acquity UPLC C18 guard column (Waters, Inc. Milford MA). The mobile phase consisted of water containing 0.1% formic acid (mobile phase A) and methanol (mobile phase B) at a flow rate of 0.25 mL/min operated at room temperature. The total run time was set to last 7.5 min with a gradient elution as follows: 35% B, increasing to 95% B over 3.5 minutes, then held constant for 3.0 minutes, and finally brought back to the initial condition of 35% B in 0.20 minutes followed by 1-minute re-equilibration. The injection volume (2 μL) was consistent for all samples. The auto-sampler chamber was maintained at 4° C. throughout the analysis.\nPlasma sample preparation: Plasma samples were prepared by spiking 5 μL of the appropriate calibration (CC) and quality (QCs) control working stock into a 45 μL blank mouse plasma. The concentration of the CC ranged from 0.2-1000 ng/mL with the final concentrations of 0.2, 0.5, 1, 5, 10, 50, 100, 500, and 1000 ng/mL. A simple protein precipitation technique using Phree 96 well phospholipid elimination plate (Phenomenex Inc, Torrance CA.) was utilized to isolate analyte from the plasma matrix. The CC, QCs and study plasma samples were added to Phree 96 well plate and spiked with 10 μL of IS a working solution. The precipitation of the matrix proteins was carried out using 300 μL of ice-cold acetonitrile. The plate was again vortexed on mixmate at 950 rpm for 2 min followed by applied 5 psi positive pressure for 10 min (Resprep VM-96 Vacuum Manifold for 96-Well Plates, Catalog #25858) (Restek; Bellefonte, PA) to collect the supernatant. Two microliters of the reconstituted sample was injected into LC-MS/MS for analysis. […]"}, "[4]": {"assay": "In vitro metabolic stability in mouse liver microsomes", "type": "in vitro ADME", "conditions": "1 μg/mL", "method": "(§3) In vitro metabolic stability in liver microsomes: Metabolic stability was assessed using mouse and human liver microsomes, (XenoTech, LLC, Lenexa, KS). Incubation of A1-r and 4r with the microsome fractions was performed in triplicate utilizing a concentration of 1 μg/mL as previously described. Serial samples (40 μL) were collected at selected time intervals and quenched with 300 μL of acetonitrile and then spiked with 10 μL of IS (0.5 μg/mL). All the samples were vortexed and centrifuged at 13,000×g for 15 min, and the supernatant was collected and transferred to an autosampler vial and injected (2 μL) onto the LC-MS/MS system. Testosterone, 7-HC and diclofenac were used as positive controls to ensure that the microsomes and incubation conditions were appropriate to conduct metabolism studies."}, "[5]": {"assay": "In vitro metabolic stability in human liver microsomes", "type": "in vitro ADME", "conditions": "1 μg/mL", "method": "as §3"}, "[6]": {"assay": "In vivo pharmacokinetic study, oral gavage", "parameters": "species or system BALB/c mice", "description": "as §2\nThe MS/MS system was operated at unit resolution in the multiple reaction monitoring (MRM) in positive ESI mode, using precursor ion>product ion combinations of 427.20>105.10 for A1-r and 413.15>265.10 m/z for 4r. The mass spectrometer source settings were optimized to the following: nebulizer gas: 2.0 L/min; heating gas: 10 L/min; drying gas: 10 L/min; interface temperature: 300° C.; desolvation line temperature: 250° C.; heat block temperature: 400° C. Data acquisition and quantitation were performed using LabSolutions software Ver.5.99 (Shimadzu Scientific Inc, Columbia, MD).\nPlasma sample preparation: Plasma samples were prepared by spiking 5 μL of the appropriate calibration (CC) and quality (QCs) control working stock into a 45 μL blank mouse plasma. The concentration of the CC ranged from 0.2-1000 ng/mL with the final concentrations of 0.2, 0.5, 1, 5, 10, 50, 100, 500, and 1000 ng/mL. A simple protein precipitation technique using Phree 96 well phospholipid elimination plate (Phenomenex Inc, Torrance CA.) was utilized to isolate analyte from the plasma matrix. The CC, QCs and study plasma samples were added to Phree 96 well plate and spiked with 10 μL of IS a working solution. The precipitation of the matrix proteins was carried out using 300 μL of ice-cold acetonitrile. The plate was again vortexed on mixmate at 950 rpm for 2 min followed by applied 5 psi positive pressure for 10 min (Resprep VM-96 Vacuum Manifold for 96-Well Plates, Catalog #25858) (Restek; Bellefonte, PA) to collect the supernatant. Two microliters of the reconstituted sample was injected into LC-MS/MS for analysis.\nIn vivo pharmacokinetic studies: Animal studies were approved by the University of Nebraska Medical Center (UNMC) Institutional Animal Care and Use Committee (IACUC protocol number 17-046-06-FC). BALB/c mice were purchased from Charles River Labs. Pharmacokinetic (PK) studies of A1-r and 4r were conducted in BALB/c mice. Animals were housed in the University of Nebraska Medical Center animal facility, for at least 7 days prior to the experiments, in order to acclimatize the animals to the laboratory conditions, at a temperature of 23-24° C., relative humidity of 40-70% and 12/12 h light/dark cycles with free access to food and water. The dosing solution was made of DMSO-Polyethylene glycol 400 (PEG400)-Propylene glycol (PG)-EtOH-Cremophore-PBS (2/20/10/10/5/53% v/v). Compound A1-r or 4r (10 mg/kg) was administered separately by oral gavage. After dosing, approximately 50 μL of blood was collected from the maxillary vein at 5, 15, 30 minutes and 1, 2, 7, and 24 hr (5 mice/group/per time point). A total of three blood samples were collected, with the third blood sample a terminal collection. Plasma was separated by centrifugation at 4,000×g at 4° C. for 10 minutes. The collected plasma samples were stored at −80° C. until analysis. […]"}, "[7]": {"test_system": "22Rv1 tumor xenograft model of prostate cancer", "assay": "22Rv1 tumor xenograft study", "type": "in vivo, NSG mice", "method": "Tumor xenograft study: All animal experiments were carried out according to approved Institutional Animal Care and Use Committee protocols at the University of Texas Southwestern Medical Center (Dallas, TX). Five-week-old female NSG mice (low circulating testosterone) were implanted with 3×10^6 22 Rv1 cells (ATCC, mycoplasma negative) in matrigel. When tumor volume reached approximately 125 mm^3 (day 11), mice were randomly divided into three groups of six mice. One group was treated with vehicle control PO (0.5% Methocel A4M+0.1% Tween 80)+vehicle IP (10% DMSO/10% cremophor EL/80% D5W). One group was treated with vehicle PO+IP 25 mg/kg A1-r in 10% DMSO/10% cremophor EL/80% D5W. One group was treated with vehicle PO+IP 50 mg/kg 4r in 10% DMSO/10% cremophor EL/80% D5W. Dosing was continued for a total of 26 days. Tumor volumes were measured twice a week with Vernier calipers, and tumor volume was calculated as (L×W^2)×3.14)/6 as previously reported. 2-3 hours after a final IP dose, animals were humanely euthanized, and tumors were collected, weighed, and frozen in liquid nitrogen after taking pictures."}, "[8]": {"conditions": "after oral administration (10 mg/kg) of 4r, Balb/c mice, plasma, mean ± SD, n = 5"}}}
{"smiles": "COC(=O)/C=C/c1cc(C(=O)NCc2ccc(C)cc2)cc(-c2ccc3ncnn3c2)c1", "note": "[Compound 4r, Methyl (E)-3-(3-([1,2,4]triazolo[1,5-a]pyridin-6-yl)-5-((4-methylbenzyl)carbamoyl)phenyl)acrylate]", "values": [{"measurement": "stability in simulated gastric fluid (SGF)", "setting": "[1]", "result": "stable"}, {"measurement": "stability in simulated intestinal fluid (SIF)", "setting": "[2]", "result": "stable"}, {"measurement": "time until reduced to below detectable limits in mouse plasma", "setting": "[3]; exposure to mouse plasma", "result": "≤ 30", "unit": "min"}, {"measurement": "stability in mouse plasma", "setting": "[3]; mouse plasma, 37° C.", "result": "unstable"}, {"measurement": "degraded in MLM", "setting": "[4]", "result": "approximately 25%"}, {"measurement": "degraded in HLM", "setting": "[5]", "result": "approximately 25%"}, {"measurement": "AUC0-t", "setting": "[6]; [8]", "result": 36.416, "unit": "ng·h/mL"}, {"measurement": "Cmax", "setting": "[6]; [8]", "result": 92.796, "unit": "ng/mL"}, {"measurement": "Tmax", "setting": "[6]; [8]", "result": 19, "unit": "min"}, {"measurement": "detection in systemic circulation 1 hour post administration", "setting": "[6]; oral 10 mg/Kg 4r, 1 hour post administration", "result": "undetectable"}, {"measurement": "reduction of tumor volume", "setting": "[7]; 25 mg/Kg IP once a day for 26 days, 22Rv1 tumors in NSG mice", "result": "approximately 30%"}, {"measurement": "reduction of tumor burden", "setting": "[7]; 50 mg/Kg IP once a day for 26 days, 22Rv1 tumors in NSG mice", "result": "approximately 45%"}, {"measurement": "mouse body weight", "setting": "[7]; 25 and 50 mg/Kg IP once a day for 26 days, NSG 22Rv1 tumor-bearing mice", "result": "no observed loss of mouse body weight"}]}
